{"source": "patent US20020025918A1", "about": "“Methods of using helical peptides in plants” (priority 1987, published 2002)", "key": {"[1]": {"experiment": "3T3 fibroblast viability, trypan blue exclusion", "format": "cell-based", "conditions": "human, 100 μM peptide, one hour, read-out: % Cell Viability", "procedure": "(§1) B-16 myeloma cells and normal 3T3 […] fibroblasts were either permitted to attach to the test plate, or treated with trypsin to free the cells from the plastic dish prior to treatment. Cells were then treated with 100 μM lytic peptide for one hour as described above, and cell viability was then determined by trypan blue exclusion."}, "[2]": {"experiment": "Survival of non-infected catfish fingerlings injected with peptide", "format": "in vivo", "conditions": "200 μg i.p. once per day for 4 days", "procedure": "[…] Treatment groups of the fish were then injected intraperitoneally (i.p.) with the lytic peptide LSB-37 dissolved in saline, or a saline control once per day for a period of 4 days."}, "Klebsiella pheumoniae": {"test_system": "Klebsiella pheumoniae", "experiment": "MIC/MBC, fresh isolates", "format": "cell-based", "conditions": "fresh isolate Klebsiella pheumoniae", "from_the_text": "(§2) The procedure of example 2 was followed using a variety of freshly isolated bacterial samples."}, "Enterobacteria Cloacae": {"test_system": "Enterobacteria Cloacae", "experiment": "MIC/MBC, fresh isolates", "format": "cell-based", "conditions": "fresh isolate Enterobacteria Cloacae", "from_the_text": "as §2"}, "Pseudomonas aeruginosa-2": {"test_system": "Pseudomonas aeruginosa-2", "experiment": "MIC/MBC, fresh isolates", "format": "cell-based", "conditions": "fresh isolate Pseudomonas aeruginosa-2", "from_the_text": "as §2"}, "Pseudomonas aeruginosa-3": {"test_system": "Pseudomonas aeruginosa-3", "experiment": "MIC/MBC, fresh isolates", "format": "cell-based", "conditions": "fresh isolate Pseudomonas aeruginosa-3", "from_the_text": "as §2"}, "Acinetobacter Cal Anit": {"test_system": "Acinetobacter Cal Anit", "experiment": "MIC/MBC, fresh isolates", "format": "cell-based", "conditions": "fresh isolate Acinetobacter Cal Anit", "from_the_text": "as §2"}, "Klebsiella pheumoniae-2": {"test_system": "Klebsiella pheumoniae-2", "experiment": "MIC/MBC, fresh isolates", "format": "cell-based", "conditions": "fresh isolate Klebsiella pheumoniae-2", "from_the_text": "as §2"}, "Enterococcus-3": {"test_system": "Enterococcus-3", "experiment": "MIC/MBC, fresh isolates", "format": "cell-based", "conditions": "fresh isolate Enterococcus-3", "from_the_text": "as §2"}, "Staph aureus": {"test_system": "Staph aureus", "experiment": "MIC/MBC, fresh isolates", "format": "cell-based", "conditions": "fresh isolate Staph aureus", "from_the_text": "as §2"}, "Staph Coag neg": {"test_system": "Staph Coag neg", "experiment": "MIC/MBC, fresh isolates", "format": "cell-based", "conditions": "fresh isolate Staph Coag neg", "from_the_text": "as §2"}, "Enterococcus-1": {"test_system": "Enterococcus-1", "experiment": "MIC/MBC, fresh isolates", "format": "cell-based", "conditions": "fresh isolate Enterococcus-1", "from_the_text": "as §2"}, "Citrobacter Diversus": {"test_system": "Citrobacter Diversus", "experiment": "MIC/MBC, fresh isolates", "format": "cell-based", "conditions": "fresh isolate Citrobacter Diversus", "from_the_text": "as §2"}, "Citrobacter Freundii": {"test_system": "Citrobacter Freundii", "experiment": "MIC/MBC, fresh isolates", "format": "cell-based", "conditions": "fresh isolate Citrobacter Freundii", "from_the_text": "as §2"}, "Enterococcus-2": {"test_system": "Enterococcus-2", "experiment": "MIC/MBC, fresh isolates", "format": "cell-based", "conditions": "fresh isolate Enterococcus-2", "from_the_text": "as §2"}, "Serratia Marcescens": {"test_system": "Serratia Marcescens", "experiment": "MIC/MBC, fresh isolates", "format": "cell-based", "conditions": "fresh isolate Serratia Marcescens", "from_the_text": "as §2"}, "Pseudomonas aeruginosa-1": {"test_system": "Pseudomonas aeruginosa-1", "experiment": "MIC/MBC, fresh isolates", "format": "cell-based", "conditions": "fresh isolate Pseudomonas aeruginosa-1", "from_the_text": "as §2"}, "Eschera Coli": {"test_system": "Eschera Coli", "experiment": "MIC/MBC, fresh isolates", "format": "cell-based", "conditions": "fresh isolate Eschera Coli", "from_the_text": "as §2"}, "Morganella morganil": {"test_system": "Morganella morganil", "experiment": "MIC/MBC, fresh isolates", "format": "cell-based", "conditions": "fresh isolate Morganella morganil", "from_the_text": "as §2"}, "B-16 myeloma cells": {"test_system": "B-16 myeloma cells", "experiment": "B-16 cell viability, trypan blue exclusion", "format": "cell-based", "conditions": "100 μM peptide, one hour", "procedure": "as §1"}, "[3]": {"experiment": "Role of cytoskeletal structure in susceptibility to lysis, FDD cell viability", "conditions": "donkey, primary fetal donkey dermal cells (FDD), % Viability of Treated DD Cells, 100 μM peptide 15 minutes"}, "S. aureus": {"test_system": "S. aureus", "experiment": "MBC and MIC susceptibility test", "format": "cell-based", "conditions": "for antibacterial result of treatment (Table I; MBC): S. auerus (+)"}, "E. coli": {"test_system": "E. coli", "experiment": "MBC and MIC susceptibility test", "format": "cell-based"}, "P. aeruginosa": {"test_system": "P. aeruginosa", "experiment": "MBC and MIC susceptibility test", "format": "cell-based", "conditions": "for antibacterial result of treatment (Table I; MBC): P. aeruginosa (−)"}, "[4]": {"experiment": "Lytic activity (general statement)"}, "lymphocytes": {"test_system": "lymphocytes", "format": "cell-based, human"}}, "note": "Where two headings read alike, the source gives them in different places. Residues, ends and D or L forms follow the SMILES beside them.", "data": [{"smiles": "CC[C@H](C)[C@H](NC(=O)CNC(=O)[C@H](CC(N)=O)NC(=O)[C@H](CCCNC(=N)N)NC(=O)[C@@H](NC(=O)[C@H](CC(N)=O)NC(=O)[C@H](CCCNC(=N)N)NC(=O)CNC(=O)[C@@H](NC(=O)[C@H](CCCCN)NC(=O)[C@H](CCC(=O)O)NC(=O)[C@@H](NC(=O)[C@H](CCCCN)NC(=O)[C@H](CCCCN)NC(=O)[C@H](Cc1ccccc1)NC(=O)[C@@H](NC(=O)[C@H](CCCCN)NC(=O)[C@H](Cc1c[nH]c2ccccc12)NC(=O)[C@H](CCCCN)NC(=O)[C@@H]1CCCN1C(=O)[C@@H](N)CC(C)C)C(C)C)[C@@H](C)CC)C(C)C)[C@@H](C)CC)C(=O)N[C@H](C(=O)N[C@@H](CCCCN)C(=O)N[C@@H](C)C(=O)NCC(=O)N1CCC[C@H]1C(=O)N[C@@H](C)C(=O)N[C@H](C(=O)N[C@@H](C)C(=O)N[C@H](C(=O)N[C@@H](CC(C)C)C(=O)NCC(=O)N[C@@H](CCC(=O)O)C(=O)N[C@@H](C)C(=O)N[C@@H](CCCCN)C(=O)N[C@@H](C)C(=O)N[C@@H](CC(C)C)C(=O)NCC(N)=O)C(C)C)[C@@H](C)CC)C(C)C", "note": "[LSB-37] (H-LPKWKVFKKIEKVGRNIRNGIVKAGPAIAVLGEAKALG-NH2)", "values": [{"measurement": "viability at 1 h, 100 μM", "setting": "[1]; normal 3T3 human fibroblasts, 3T3 Suspension (trypsinized)", "result": 12, "unit": "%"}, {"measurement": "viability at 1 h, 100 μM", "setting": "[1]; 3T3 Monolayer", "result": 94, "unit": "%"}, {"measurement": "% Survival", "setting": "[2]", "result": 100, "unit": "%"}, {"measurement": "MBC", "setting": "Klebsiella pheumoniae", "result": 8, "unit": "µM"}, {"measurement": "MIC", "setting": "Klebsiella pheumoniae", "result": 2, "unit": "µM"}, {"measurement": "MBC", "setting": "Enterobacteria Cloacae", "result": 8, "unit": "µM"}, {"measurement": "MIC", "setting": "Enterobacteria Cloacae", "result": 2, "unit": "µM"}, {"measurement": "MBC", "setting": "Pseudomonas aeruginosa-2", "result": 16, "unit": "µM"}, {"measurement": "MIC", "setting": "Pseudomonas aeruginosa-2", "result": 4, "unit": "µM"}, {"measurement": "MBC", "setting": "Pseudomonas aeruginosa-3", "result": 16, "unit": "µM"}, {"measurement": "MIC", "setting": "Pseudomonas aeruginosa-3", "result": 8, "unit": "µM"}, {"measurement": "MBC", "setting": "Acinetobacter Cal Anit", "result": 1, "unit": "µM"}, {"measurement": "MIC", "setting": "Acinetobacter Cal Anit", "result": 0.5, "unit": "µM"}, {"measurement": "MBC", "setting": "Klebsiella pheumoniae-2", "result": 8, "unit": "µM"}, {"measurement": "MIC", "setting": "Klebsiella pheumoniae-2", "result": 4, "unit": "µM"}, {"measurement": "MIC", "setting": "Enterococcus-3", "result": 32, "unit": "µM"}, {"measurement": "MIC", "setting": "Staph aureus", "result": 32, "unit": "µM"}, {"measurement": "MIC", "setting": "Staph Coag neg", "result": 32, "unit": "µM"}, {"measurement": "MBC", "setting": "Enterococcus-1", "result": 32, "unit": "µM"}, {"measurement": "MIC", "setting": "Enterococcus-1", "result": 8, "unit": "µM"}, {"measurement": "MBC", "setting": "Citrobacter Diversus", "result": 4, "unit": "µM"}, {"measurement": "MIC", "setting": "Citrobacter Diversus", "result": 1, "unit": "µM"}, {"measurement": "MBC", "setting": "Citrobacter Freundii", "result": 4, "unit": "µM"}, {"measurement": "MIC", "setting": "Citrobacter Freundii", "result": 1, "unit": "µM"}, {"measurement": "MIC", "setting": "Enterococcus-2", "result": 32, "unit": "µM"}, {"measurement": "MIC", "setting": "Serratia Marcescens", "result": 32, "unit": "µM"}, {"measurement": "MBC", "setting": "Pseudomonas aeruginosa-1", "result": 16, "unit": "µM"}, {"measurement": "MIC", "setting": "Pseudomonas aeruginosa-1", "result": 8, "unit": "µM"}, {"measurement": "MBC", "setting": "Eschera Coli", "result": 4, "unit": "µM"}, {"measurement": "MIC", "setting": "Eschera Coli", "result": 1, "unit": "µM"}, {"measurement": "MIC", "setting": "Morganella morganil", "result": 32, "unit": "µM"}, {"measurement": "% Cell Viability", "setting": "B-16 myeloma cells; B-16 Monolayer", "result": 78, "unit": "%"}, {"measurement": "% Cell Viability", "setting": "B-16 myeloma cells; B-16 Suspension (trypsinized)", "result": 22, "unit": "%"}, {"measurement": "viability at 15 minutes, 100 μM", "setting": "[3]; Cold-treated (4° C.)", "result": 70, "unit": "%"}, {"measurement": "viability at 15 minutes, 100 μM", "setting": "[3]; Warm-treated (37° C.)", "result": 96, "unit": "%"}, {"measurement": "viability at 15 minutes, 100 μM", "setting": "[3]; with colchicine 0.1 μg/ml (cytoskeletal inhibitor), Colchicine-treated (0.1 μg/ml)", "result": 40, "unit": "%"}, {"measurement": "viability at 15 minutes, 100 μM", "setting": "[3]; with cytochalasin D 5 μg/ml (cytoskeletal inhibitor), Cytochalasin D-treated (5 μg/ml)", "result": 32, "unit": "%"}, {"measurement": "antibacterial result of treatment (Table I; MBC)", "setting": "S. aureus", "result": 64, "unit": "µM"}, {"measurement": "MBC", "setting": "S. aureus; Table III, S. aureus (+)", "result": 64, "unit": "µM"}, {"measurement": "antibacterial result of treatment (Table I; MBC)", "setting": "E. coli", "result": 16, "unit": "µM"}, {"measurement": "MBC", "setting": "E. coli; Table III", "result": 2.0, "unit": "µM"}, {"measurement": "antibacterial result of treatment (Table I; MBC)", "setting": "P. aeruginosa", "result": 8, "unit": "µM"}, {"measurement": "MBC", "setting": "P. aeruginosa; Table III, P. aeuriginosa (−)", "result": 3.6, "unit": "µM"}]}, {"smiles": "CC[C@H](C)[C@H](NC(=O)[C@H](CC(N)=O)NC(=O)[C@H](CCCNC(=N)N)NC(=O)CNC(=O)[C@H](CCSC)NC(=O)[C@H](CCCCN)NC(=O)[C@H](CCC(=O)O)NC(=O)[C@@H](NC(=O)[C@H](CCCCN)NC(=O)[C@H](CC(C)C)NC(=O)[C@H](Cc1ccccc1)NC(=O)[C@@H](NC(=O)[C@H](CCCCN)NC(=O)[C@H](CCC(=O)O)NC(=O)[C@H](CCCCN)NC(=O)[C@@H]1CCCN1C(=O)[C@@H](N)CCSC)C(C)C)[C@@H](C)CC)C(=O)N[C@@H](CCCNC(=N)N)C(=O)N[C@@H](CC(N)=O)C(N)=O", "note": "[Vishnu-3] (H-MPKEKVFLKIEKMGRNIRN-NH2)", "values": [{"measurement": "antibacterial result of treatment (Table I; MBC)", "setting": "S. aureus", "result": ">64", "unit": "µM"}, {"measurement": "lytic activity (in words)", "setting": "[4]", "result": "devoid of lytic activity"}, {"measurement": "antibacterial result of treatment (Table I; MBC)", "setting": "E. coli", "result": ">64", "unit": "µM"}, {"measurement": "antibacterial result of treatment (Table I; MBC)", "setting": "P. aeruginosa", "result": ">64", "unit": "µM"}, {"measurement": "stimulation of cell proliferation (in words)", "setting": "lymphocytes", "result": "potent stimulator of cell proliferation"}]}]}
